Assay results published in US20260042731A1, “(2,4-DICHLOROPHENOXY)ACETIC ACID ANALOGS” (CORTEVA AGRISCIENCE LLC, priority 2022, published 2026).
Read-outs that look alike come from different tables or passages of the source.

Tests used:
[1] = test system: Amaranthus rudis (AMATA), tall water hemp; experiment: Postemergence herbicide evaluation, growth of Amaranthus rudis (AMATA); type: in vivo; settings: Amaranthus tuberculatus, post-emergence, read-out: Ave. AMATA, percent reduction in plant size relative to the untreated control
[2] = test system: glyphosate resistant Conyza canadensis (L.) (ERICA), horseweed; experiment: Postemergence herbicide evaluation, growth of Conyza canadensis (ERICA); type: in vivo; settings: Erigeron canadensis, post-emergence, read-out: Ave. ERICA, percent reduction in plant size relative to the untreated control
[3] = test system: weeds ABUTH, AMATA, AMBEL, CHEAL, ERICA; experiment: Postemergence herbicide evaluation, overall average % weed control (ABUTH, AMATA, AMBEL, CHEAL, ERICA); type: in vivo; settings: post-emergence, read-out: Overall Ave % Weed Control
[4] = test system: Ambrosia artemisiifolia (AMBEL), common ragweed; experiment: Postemergence herbicide evaluation, growth of Ambrosia artemisiifolia (AMBEL); type: in vivo; settings: Ambrosia artemisiifolia, post-emergence, read-out: AVE. AMBEL, percent reduction in plant size relative to the untreated control
[5] = Volatility of compounds measured by thermogravimetric analysis (TGA); type: physicochemical
[6] = test system: Abutilon theophrasti (ABUTH), velvetleaf; experiment: Postemergence herbicide evaluation, growth of Abutilon theophrasti (ABUTH); type: in vivo; settings: Abutilon theophrasti, post-emergence, read-out: AVE. ABUTH, percent reduction in plant size relative to the untreated control
[7] = test system: Chenopodium album (CHEAL), common lambsquarters; experiment: Postemergence herbicide evaluation, growth of Chenopodium album (CHEAL); type: in vivo; settings: Chenopodium album, post-emergence, read-out: Ave. CHEAL, percent reduction in plant size relative to the untreated control

SMILES | pest or weed control at 280 g/ha ([1]; 168 h) [%] | pest or weed control at 560 g/ha ([1]; 168 h) [%] | pest or weed control at 280 g/ha ([1]; 336 h) [%] | pest or weed control at 560 g/ha ([1]; 336 h) [%] | pest or weed control at 280 g/ha ([1]; 504 h) [%] | pest or weed control at 560 g/ha ([1]; 504 h) [%] | pest or weed control at 280 g/ha ([2]; 168 h) [%] | pest or weed control at 560 g/ha ([2]; 168 h) [%] | pest or weed control at 280 g/ha ([2]; 336 h) [%] | pest or weed control at 560 g/ha ([2]; 336 h) [%] | pest or weed control at 280 g/ha ([2]; 504 h) [%] | pest or weed control at 560 g/ha ([2]; 504 h) [%] | pest or weed control at 280 g/ha ([3]; 168 h) [%] | pest or weed control at 560 g/ha ([3]; 168 h) [%] | pest or weed control at 280 g/ha ([3]; 336 h) [%] | pest or weed control at 560 g/ha ([3]; 336 h) [%] | pest or weed control at 280 g/ha ([3]; 504 h) [%] | pest or weed control at 560 g/ha ([3]; 504 h) [%] | pest or weed control at 280 g/ha ([4]; 168 h) [%] | pest or weed control at 560 g/ha ([4]; 168 h) [%] | other results
O=C(COc1ccc(Cl)cc1Cl)Nc1ccncc1 [Compound D1, 2-(2,4-Dichlorophenoxy)-N-(pyridin-4-yl)acetamide] | 68 | 78 | 75 | 85 | 78 | 90 | 70 | 65 | 88 | 90 | 99 | 97 | 69 | 72 | 83 | 87 | 89 | 93 | 60 | 65 | pest or weed control at 280 g/ha ([4]; 336 h): 89%; pest or weed control at 560 g/ha ([4]; 336 h): 94%; pest or weed control at 280 g/ha ([4]; 504 h): 78%; pest or weed control at 560 g/ha ([4]; 504 h): 99%; TGA Data (rate of weight loss, volatility) [5]: 0.05 µg/min; pest or weed control at 280 g/ha ([6]; 168 h): 78%; pest or weed control at 560 g/ha ([6]; 168 h): 78%; pest or weed control at 280 g/ha ([6]; 336 h): 88%; pest or weed control at 560 g/ha ([6]; 336 h): 80%; pest or weed control at 280 g/ha ([6]; 504 h): 93%; pest or weed control at 560 g/ha ([6]; 504 h): 87%; pest or weed control at 280 g/ha ([7]; 168 h): 68%; pest or weed control at 560 g/ha ([7]; 168 h): 75%; pest or weed control at 280 g/ha ([7]; 336 h): 78%; pest or weed control at 560 g/ha ([7]; 336 h): 85%; pest or weed control at 280 g/ha ([7]; 504 h): 97%; pest or weed control at 560 g/ha ([7]; 504 h): 93%
O=C(COc1ccc(Cl)cc1Cl)n1ncc2ccccc21 [Compound D3, 2-(2,4-Dichlorophenoxy)-1-(1H-indazol-1-yl)ethanone] | 70 | 73 | 73 | 80 | 75 | 78 | 63 | 68 | 83 | 85 | 84 | 88 | 59 | 65 | 64 | 74 | 63 | 73 | 63 | 68 | pest or weed control at 280 g/ha ([4]; 336 h): 75%; pest or weed control at 560 g/ha ([4]; 336 h): 90%; pest or weed control at 280 g/ha ([4]; 504 h): 73%; pest or weed control at 560 g/ha ([4]; 504 h): 95%; TGA Data (rate of weight loss, volatility) [5]: 0.03 µg/min; pest or weed control at 280 g/ha ([6]; 168 h): 30%; pest or weed control at 560 g/ha ([6]; 168 h): 48%; pest or weed control at 280 g/ha ([6]; 336 h): 25%; pest or weed control at 560 g/ha ([6]; 336 h): 43%; pest or weed control at 280 g/ha ([6]; 504 h): 23%; pest or weed control at 560 g/ha ([6]; 504 h): 35%; pest or weed control at 280 g/ha ([7]; 168 h): 68%; pest or weed control at 560 g/ha ([7]; 168 h): 68%; pest or weed control at 280 g/ha ([7]; 336 h): 63%; pest or weed control at 560 g/ha ([7]; 336 h): 70%; pest or weed control at 280 g/ha ([7]; 504 h): 63%; pest or weed control at 560 g/ha ([7]; 504 h): 70%
